Experimental data as given in paper PMC9415638, “Discovery of novel thiazolyl-pyrazolines as dual EGFR and VEGFR-2 inhibitors endowed with in vitro antitumor activity towards non-small lung cancer” (Journal of Enzyme Inhibition and Medicinal Chemistry, 2022).
Read-outs that look alike come from different tables or passages of the source.

Legend:
[1] = test system: A549 lung cancer cells; assay: Anti-proliferative MTT assay; conditions: Homo sapiens, A549, 24 h; for inhibition at 10 µM: read-out: % Growth inhibition ± SEM A549; for IC50: read-out: IC50 (µM) ± SEM A549
[2] = biological target: T1, recombinant human VEGFR-2/KDR (Homo sapiens, UniProt P35968); assay: VEGFR-2 kinase assay (VEGFR-2/KDR ELISA kit); format: biochemical; conditions: read-out: IC50 (nM) ± SEM VEGFR-2
T1 construct: purchased
Description: (§1) The EGFR kinase assay was carried out in 96-well plates coated with PGT (poly l-glutamic acid l-tyrosine, 4:1, Sigma Aldrich, St. Louis, MO) as previously described. IC50 values were calculated using GraphPad Prism 5. Each experiment was carried out at least three times. The VEGFR-2 kinase assay was carried out in 96-well streptavidin coated plate using recombinant human VEGFR-2/KDR ELISA kit according to manufacturer’s instructions.

[3] = biological target: EGFR (Homo sapiens, UniProt P00533); assay: EGFR kinase assay (PGT-coated 96-well plates); format: biochemical; conditions: read-out: IC50 (nM) ± SEM EGFR
Description: as §1

[4] = test system: WI-38 human lung fibroblast cells; assay: MTT cytotoxicity assay on normal cells; format: cell-based; conditions: Homo sapiens, WI-38; normal lung fibroblasts, MTT, 24 h, n = 3; read-out: IC50 (µM) ± SEM WI-38
Description: All chemicals used in this study were analytical or cell-culture grade.
Cytotoxicity was measured using the MTT assay. […] The medium was aspirated and 150 μL DMSO was added to solubilise MTT formazan crystals. The plates were then shaken, and the optical density was determined at 570 nm using an ELISA plate reader (Model 550, Bio-Rad, Hercules, CA). At least three independent experiments were performed.

[5] = test system: HCC70 breast cancer cells; assay: Anti-proliferative MTT assay; format: cell-based; conditions: Homo sapiens, 24 h, read-out: % Growth inhibition ± SEM HCC70
Description: (§2) To evaluate the anti-proliferative activity of the synthesised thiazolyl-pyrazoline derivatives (7a–7d, 10a–10d, and 13a–13f), a preliminary in vitro one dose (10 µM) anticancer assay was performed. Nine cell lines derived from five tumour subpanels were examined; leukaemia (K562 and KG-1a), breast (MCF-7, BT-549 and HCC70), lung (A549 and H441), colon (HCT116) and liver (HepG2) cancer cell lines. The compounds were added at a single concentration (10 µM) and the cultures were incubated for 24 h, then the per cent growth inhibition (%GI) was calculated.
(§3) Human leukaemia (K562 and KG-1a), breast (MCF-7, BT-549 and HCC70), lung (A549, H441, NCI-H1650 and NCI-H1975), colon (HCT116), liver (HepG2) cancer cell lines and WI-38 human lung fibroblast cell line were obtained from the American Type Culture Collection (ATCC; Manassas, VA) and were cultured in their suitable media containing 10% foetal bovine serum (FBS; Sigma-Aldrich) in a humidified atmosphere with 5% CO2 at 37 °C. Gefitinib and vandetanib were purchased from Sigma-Aldrich. All chemicals used in this study were analytical or cell-culture grade.
(§4) Cytotoxicity was measured using the MTT assay. Human leukaemia (K562 and KG-1a), breast (MCF-7, BT-549 and HCC70), lung (A549, H441, NCI-H1650 and NCI-H1975), colon (HCT116), liver (HepG2) cancer cell lines and WI-38 human lung fibroblast cell line were plated at a density of 1 × 10^4 cells per well in 96-well plates overnight and then treated with the compounds. After 24 h treatment, 20 μL of MTT solution (2 mg/mL in phosphate-buffered saline [PBS]) was added to each well and the cells were cultured for another 4 h at 37 °C. The medium was aspirated and 150 μL DMSO was added to solubilise MTT formazan crystals. The plates were then shaken, and the optical density was determined at 570 nm using an ELISA plate reader (Model 550, Bio-Rad, Hercules, CA). At least three independent experiments were performed. The IC50 values were calculated using GraphPad Prism 5 (Version 5.01, GraphPad Software, San Diego, CA).

[6] = test system: HCT116 colon cancer cells; assay: Anti-proliferative MTT assay; format: cell-based; conditions: Homo sapiens, HCT-116, 24 h, read-out: % Growth inhibition ± SEM HCT116
Description: as §2, §3, §4

[7] = test system: HepG2 liver cancer cells; assay: Anti-proliferative MTT assay; format: cell-based; conditions: Homo sapiens, 24 h, read-out: % Growth inhibition ± SEM HepG2
Description: as §2, §3, §4

[8] = test system: BT-549 breast cancer cells; assay: Anti-proliferative MTT assay; format: cell-based; conditions: Homo sapiens, 24 h, read-out: % Growth inhibition ± SEM BT-549
Description: as §2, §3, §4

[9] = test system: MCF-7 breast cancer cells; assay: Anti-proliferative MTT assay; format: cell-based; conditions: Homo sapiens, MCF7, 24 h, read-out: % Growth inhibition ± SEM MCF-7
Description: as §2, §3, §4

[10] = test system: K562 leukaemia cells; assay: Anti-proliferative MTT assay; format: cell-based; conditions: Homo sapiens, 24 h, read-out: % Growth inhibition ± SEM K562
Description: as §2, §3, §4

[11] = test system: KG-1a leukaemia cells; assay: Anti-proliferative MTT assay; format: cell-based; conditions: Homo sapiens, 24 h, read-out: % Growth inhibition ± SEM KG-1a
Description: as §2, §3, §4

[12] = test system: H441 lung cancer cells; assay: Anti-proliferative MTT assay; conditions: for inhibition at 10 µM: read-out: % Growth inhibition ± SEM H441
[13] = Homo sapiens, NCI-H441, 24 h, read-out: IC50 (µM) ± SEM H441, MTT, 24 h, n = 3

Chain of EGFR (P00533 25-1210): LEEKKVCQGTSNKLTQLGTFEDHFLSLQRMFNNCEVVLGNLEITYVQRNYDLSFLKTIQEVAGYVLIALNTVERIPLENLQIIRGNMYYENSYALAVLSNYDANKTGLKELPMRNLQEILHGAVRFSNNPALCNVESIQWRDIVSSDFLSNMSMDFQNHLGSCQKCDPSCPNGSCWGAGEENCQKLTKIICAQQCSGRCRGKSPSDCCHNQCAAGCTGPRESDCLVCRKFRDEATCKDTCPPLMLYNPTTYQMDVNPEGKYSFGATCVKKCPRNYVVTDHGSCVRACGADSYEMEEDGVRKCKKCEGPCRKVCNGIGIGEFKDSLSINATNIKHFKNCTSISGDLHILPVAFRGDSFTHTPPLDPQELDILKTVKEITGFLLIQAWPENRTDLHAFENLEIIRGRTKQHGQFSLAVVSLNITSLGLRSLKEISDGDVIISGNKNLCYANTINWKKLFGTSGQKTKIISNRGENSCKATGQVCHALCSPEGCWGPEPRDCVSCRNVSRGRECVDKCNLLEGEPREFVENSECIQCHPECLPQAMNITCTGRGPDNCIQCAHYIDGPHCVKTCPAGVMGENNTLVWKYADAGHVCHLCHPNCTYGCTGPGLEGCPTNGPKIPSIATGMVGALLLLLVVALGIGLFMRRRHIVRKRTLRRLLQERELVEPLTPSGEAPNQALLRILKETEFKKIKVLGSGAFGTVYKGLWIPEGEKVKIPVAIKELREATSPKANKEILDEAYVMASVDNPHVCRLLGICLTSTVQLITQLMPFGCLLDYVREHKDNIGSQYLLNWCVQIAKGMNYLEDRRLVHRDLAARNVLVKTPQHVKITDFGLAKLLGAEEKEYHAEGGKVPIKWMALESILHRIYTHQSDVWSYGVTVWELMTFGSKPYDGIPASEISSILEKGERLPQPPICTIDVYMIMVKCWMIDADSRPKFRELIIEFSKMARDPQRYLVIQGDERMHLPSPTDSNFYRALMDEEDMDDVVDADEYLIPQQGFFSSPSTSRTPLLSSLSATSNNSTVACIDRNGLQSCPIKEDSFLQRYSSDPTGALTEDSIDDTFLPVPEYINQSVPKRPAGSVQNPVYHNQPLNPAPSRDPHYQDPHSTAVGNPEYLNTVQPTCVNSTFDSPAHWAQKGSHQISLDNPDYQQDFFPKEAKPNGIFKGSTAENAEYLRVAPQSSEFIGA
T1 sequence (P35968 20-1356): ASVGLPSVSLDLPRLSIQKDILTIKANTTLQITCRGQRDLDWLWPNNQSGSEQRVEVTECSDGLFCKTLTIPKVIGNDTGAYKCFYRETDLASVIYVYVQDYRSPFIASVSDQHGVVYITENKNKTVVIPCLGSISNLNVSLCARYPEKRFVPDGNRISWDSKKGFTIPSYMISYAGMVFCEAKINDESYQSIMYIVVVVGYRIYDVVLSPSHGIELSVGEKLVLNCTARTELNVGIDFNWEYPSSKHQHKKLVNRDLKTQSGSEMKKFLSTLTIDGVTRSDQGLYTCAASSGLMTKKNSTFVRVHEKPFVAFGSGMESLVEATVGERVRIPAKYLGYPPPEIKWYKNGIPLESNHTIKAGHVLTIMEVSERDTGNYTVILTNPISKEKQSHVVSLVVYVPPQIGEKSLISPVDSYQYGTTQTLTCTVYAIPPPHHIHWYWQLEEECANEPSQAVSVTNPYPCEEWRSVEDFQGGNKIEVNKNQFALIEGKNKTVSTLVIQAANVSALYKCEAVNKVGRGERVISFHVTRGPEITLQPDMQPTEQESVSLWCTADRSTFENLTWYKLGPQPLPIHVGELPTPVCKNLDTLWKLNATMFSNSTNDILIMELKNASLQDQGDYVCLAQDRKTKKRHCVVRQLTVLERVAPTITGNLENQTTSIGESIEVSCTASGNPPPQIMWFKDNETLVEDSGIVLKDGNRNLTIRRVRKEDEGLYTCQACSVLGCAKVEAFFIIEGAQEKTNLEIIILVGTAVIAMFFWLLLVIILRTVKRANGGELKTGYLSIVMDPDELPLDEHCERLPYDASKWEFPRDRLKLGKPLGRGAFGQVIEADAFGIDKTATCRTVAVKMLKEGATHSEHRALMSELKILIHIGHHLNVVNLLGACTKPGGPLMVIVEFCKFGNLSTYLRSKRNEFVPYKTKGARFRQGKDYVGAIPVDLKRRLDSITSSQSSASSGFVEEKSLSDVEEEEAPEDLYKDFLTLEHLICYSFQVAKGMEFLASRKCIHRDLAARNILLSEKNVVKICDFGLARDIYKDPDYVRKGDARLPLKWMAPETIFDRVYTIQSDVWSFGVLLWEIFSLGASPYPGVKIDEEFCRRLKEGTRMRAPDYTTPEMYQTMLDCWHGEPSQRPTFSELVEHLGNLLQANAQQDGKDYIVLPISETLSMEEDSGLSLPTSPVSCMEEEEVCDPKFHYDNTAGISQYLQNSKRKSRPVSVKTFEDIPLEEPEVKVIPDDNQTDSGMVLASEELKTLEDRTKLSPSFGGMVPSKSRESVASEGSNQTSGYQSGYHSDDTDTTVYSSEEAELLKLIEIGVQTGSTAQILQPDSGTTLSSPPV

Row | SMILES | inhibition at 10 µM [1] [%] | IC50 [1] [µM] | IC50 [2] [nM] | IC50 [3] [nM] | melting point [°C] | IC50 [4] [µM] | inhibition at 10 µM [5] [%] | inhibition at 10 µM [6] [%] | inhibition at 10 µM [7] [%] | inhibition at 10 µM [8] [%] | inhibition at 10 µM [9] [%] | inhibition at 10 µM [10] [%] | inhibition at 10 µM [11] [%] | inhibition at 10 µM ([12]; Homo sapiens, NCI-H441, 24 h) [%] | IC50 [12, 13] [µM] | IC50 ([12]; read-out: IC50 (µM) ± SEM H441, MTT, 24 h, n = 3) [µM]
1 | COc1ccc(C2CC(c3ccc(Cl)cc3Cl)=NN2c2nc(-c3ccccc3)cs2)cc1 (stereo not shown) [Compound 7a, 2-(3-(2,4-Dichlorophenyl)-5-(4-methoxyphenyl)-4,5-dihydro-1H-pyrazol-1-yl)-4-phenylthiazole] | 34.9 ± 4.3 | 22.5 ± 1.2 | 125 ± 1.4 | 145 ± 2 | 72 to 75 | 88.2 ± 4.2 | 27.3 ± 1 | 0.5 ± 0.1 | 0.5 | 26.4 ± 3.6 | 0.07 | 14.2 ± 2.1 | 18.4 ± 1.3 | 36.1 ± 2.1 | 38.4 ± 2.3 | –
2 | COc1ccc(C2CC(c3ccc(Cl)cc3Cl)=NN2c2nc(-c3ccc(Cl)cc3)cs2)cc1 (stereo not shown) [Compound 7b, 4-(4-Chlorophenyl)-2-(3-(2,4-dichlorophenyl)-5-(4-methoxyphenyl)-4,5-dihydro-1H-pyrazol-1-yl)thiazole] | 45.2 ± 2.9 | 12 ± 0.4 | 195 ± 4.6 | 114.2 ± 0.4 | 140 to 141 | 60.6 ± 3.1 | 19.6 ± 0.3 | 18.8 ± 1.9 | 34.4 ± 1.4 | 5.2 ± 1 | 25.9 ± 1.2 | 21.5 ± 3 | 21.7 ± 4.6 | 35.2 ± 1.2 | 26.5 ± 1.1 | –
3 | COc1ccc(C2CC(c3ccc(Cl)cc3Cl)=NN2c2nc(-c3ccccc3)cs2)cc1OC (stereo not shown) [Compound 7c, 2-(3-(2,4-Dichlorophenyl)-5-(3,4-dimethoxyphenyl)-4,5-dihydro-1H-pyrazol-1-yl)-4-phenylthiazole] | 8.9 ± 1.1 | > 100 | 915.2 ± 4.3 | 511.2 ± 3.2 | 120 to 122 | > 100 | 7.3 ± 1.2 | 4.9 ± 0.8 | 17.1 ± 2.7 | 3.1 ± 0.6 | 9.2 ± 0.9 | 5.2 ± 0.5 | 4.3 ± 0.7 | 16.2 ± 0.3 | > 100 | –
4 | COc1ccc(C2CC(c3ccc(Cl)cc3Cl)=NN2c2nc(-c3ccc(Cl)cc3)cs2)cc1OC (stereo not shown) [Compound 7d, 4-(4-Chlorophenyl)-2-(3-(2,4-dichlorophenyl)-5-(3,4-dimethoxyphenyl)-4,5-dihydro-1H-pyrazol-1-yl)thiazole] | 31.2 ± 1.4 | 20.2 ± 2 | 186 ± 2.3 | 132.9 ± 1.2 | 158 to 159 | 40.1 ± 2.7 | 17.3 ± 0.6 | 0.7 | 5.1 ± 1 | 18 ± 2.7 | 2.2 ± 0.6 | 22 ± 1.6 | 25.1 ± 2 | 34.8 ± 2.4 | 29.1 ± 3.5 | –
5 | COc1ccc(C2CC(c3ccc(Cl)cc3Cl)=NN2c2nc(C)c(C(C)=O)s2)cc1 (stereo not shown) [Compound 10a, 1-(2-(3-(2,4-Dichlorophenyl)-5-(4-methoxyphenyl)-4,5-dihydro-1H-pyrazol-1-yl)-4-methylthiazol-5-yl)ethan-1-one] | 32.3 ± 2.2 | 49.1 ± 3.2 | 450 ± 8.3 | 274 ± 2.3 | 205 to 207 | > 100 | 24.3 ± 2.5 | 19 ± 2.6 | 28 ± 4.3 | 9.4 ± 1 | 13.6 ± 2.9 | 12.2 ± 1.9 | 22.2 ± 1.6 | 6.3 ± 0.7 | > 100 | –
6 | COc1ccc(C2CC(c3ccc(Cl)cc3Cl)=NN2c2nc(C)c(C(=O)Nc3ccccc3)s2)cc1 (stereo not shown) [Compound 10c, 2-(3-(2,4-Dichlorophenyl)-5-(4-methoxyphenyl)-4,5-dihydro-1H-pyrazol-1-yl)-4-methyl-N-phenylthiazole-5-carboxamide] | 28.9 ± 2 | 23.5 ± 1.3 | 102 ± 4.3 | 130.7 ± 1.1 | 195 to 197 | > 100 | 18.3 ± 1.6 | 7.9 ± 1.1 | 11.9 ± 1.1 | 22.3 ± 0.8 | 2.5 ± 0.8 | 11.2 ± 1 | 9.1 ± 1 | 8.7 ± 0.1 | 45.2 ± 2.3 | –
7 | COc1ccc(C2CC(c3ccc(Cl)cc3Cl)=NN2c2nc(C)c(N=Nc3ccccc3)s2)cc1 (stereo not shown) [Compound 13a, 2-(3-(2,4-Dichlorophenyl)-5-(4-methoxyphenyl)-4,5-dihydro-1H-pyrazol-1-yl)-4-methyl-5-(phenyldiazenyl)thiazole] | 11 ± 0.8 | > 100 | 1151 ± 4.3 | 973 ± 2 | 168 to 170 | > 100 | 15.3 ± 1.4 | 19.5 ± 1.4 | 15.8 ± 2.2 | 10.3 ± 1.1 | 17.8 ± 1 | 2.2 ± 0.2 | 4.1 ± 0.9 | 22.2 ± 0.9 | > 100 | 94.4 ± 5.5
8 | COc1cc2c(Nc3ccc(Br)cc3F)ncnc2cc1OCC1CCN(C)CC1 [Vandetanib, reference compound] | – | 3.4 ± 1 | – | – | – | 8.6 ± 0.4 | – | – | – | – | – | – | – | – | 3.9 ± 0.8 | –
